Measured values as given in PubChem BioAssay (NCI).
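Abbreviation: GI50, concentration required for 50% inhibition of growth. TGI: concentration producing complete growth inhibition.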

Tests used:
Experiment in all cases: growth of human tumour cells (NCI), 384-well format
786-0 renal = system: 786-0 renal
A498 renal = system: A498 renal
A549 NSCLC = system: A549 NSCLC
ACHN renal = system: ACHN renal
CAKI-1 renal = system: CAKI-1 renal
CCRF-CEM leukemia = system: CCRF-CEM leukemia
DU-145 prostate = system: DU-145 prostate
EKVX NSCLC = system: EKVX NSCLC
HCC-2998 colon = system: HCC-2998 colon
HCT-116 colon = system: HCT-116 colon
HCT-15 colon = system: HCT-15 colon
HL-60(TB) leukemia = system: HL-60(TB) leukemia
HOP-62 NSCLC = system: HOP-62 NSCLC
HOP-92 NSCLC = system: HOP-92 NSCLC
HS 578T breast = system: HS 578T breast
IGROV1 ovarian = system: IGROV1 ovarian
K-562 leukemia = system: K-562 leukemia
KM12 colon = system: KM12 colon
LOX IMVI melanoma = system: LOX IMVI melanoma
M14 melanoma = system: M14 melanoma
MALME-3M melanoma = system: MALME-3M melanoma
MDA-MB-231 breast = system: MDA-MB-231 breast
MOLT-4 leukemia = system: MOLT-4 leukemia
NCI-H226 lung = system: NCI-H226 lung
NCI-H23 lung = system: NCI-H23 lung
NCI-H322M lung = system: NCI-H322M lung
NCI-H460 NSCLC = system: NCI-H460 NSCLC
NCI/ADR-RES ovarian = system: NCI/ADR-RES ovarian
OVCAR-3 ovarian = system: OVCAR-3 ovarian
OVCAR-5 ovarian = system: OVCAR-5 ovarian
OVCAR-8 ovarian = system: OVCAR-8 ovarian
PC-3 prostate = system: PC-3 prostate
RPMI-8226 leukemia = system: RPMI-8226 leukemia
RXF 393 renal = system: RXF 393 renal
SF-539 CNS = system: SF-539 CNS
SK-MEL-2 melanoma = system: SK-MEL-2 melanoma
SK-OV-3 ovarian = system: SK-OV-3 ovarian
SN12C renal = system: SN12C renal
SNB-75 CNS = system: SNB-75 CNS
SR leukemia = system: SR leukemia
SW-620 colon = system: SW-620 colon
T-47D breast = system: T-47D breast
TK-10 renal = system: TK-10 renal
U251 glioblastoma = system: U251 glioblastoma
UACC-257 melanoma = system: UACC-257 melanoma
UACC-62 melanoma = system: UACC-62 melanoma
UO-31 renal = system: UO-31 renal

**Q.** With `Cc1ncsc1-c1ccc(CNC(=O)[C@@H]2C[C@@H](O)CN2C(=O)[C@@H](NC(=O)C2(C#N)CC2)C(C)(C)C)cc1` as the molecule, how does the GI50 ([…]-0 renal) read?
**A.** Its GI50 is > 100 µM.

**Q.** And the TGI (786-0 renal)?
**A.** Its TGI is > 100 µM.

**Q.** And the GI50 (A498 renal)?
**A.** Its GI50 is > 100 µM.

**Q.** And the TGI (A498 renal)?
**A.** The TGI was > 100 µM.

**Q.** What about the GI50 (A549 NSCLC) of the same molecule?
**A.** Its GI50 is > 100 µM.

**Q.** And the TGI (A549 NSCLC)?
**A.** The TGI was > 100 µM.

**Q.** What about the GI50 (ACHN renal) of the same molecule?
**A.** Its GI50 is > 100 µM.

**Q.** What about the TGI (ACHN renal) of the same molecule?
**A.** The TGI was > 100 µM.

**Q.** And the GI50 (CAKI-1 renal)?
**A.** Its GI50 is > 100 µM.

**Q.** And the TGI (CAKI-1 renal)?
**A.** Its TGI is > 100 µM.

**Q.** And the GI50 (CCRF-CEM leukemia)?
**A.** The GI50 was > 100 µM.

**Q.** What about the TGI (CCRF-CEM leukemia) of the same molecule?
**A.** Its TGI is > 100 µM.

**Q.** What about the GI50 (DU-145 prostate) of the same molecule?
**A.** The GI50 was > 100 µM.

**Q.** And the TGI (DU-145 prostate)?
**A.** Its TGI is > 100 µM.

**Q.** What about the GI50 (EKVX NSCLC) of the same molecule?
**A.** The GI50 was > 100 µM.

**Q.** And the TGI (EKVX NSCLC)?
**A.** The TGI was > 100 µM.

**Q.** What about the GI50 (HCC-2998 colon) of the same molecule?
**A.** The GI50 was > 100 µM.

**Q.** What about the TGI (HCC-2998 colon) of the same molecule?
**A.** Its TGI is > 100 µM.

**Q.** And the GI50 (HCT-116 colon)?
**A.** Its GI50 is > 100 µM.

**Q.** What about the TGI (HCT-116 colon) of the same molecule?
**A.** Its TGI is > 100 µM.

**Q.** And the GI50 (HCT-15 colon)?
**A.** Its GI50 is > 100 µM.

**Q.** And the TGI (HCT-15 colon)?
**A.** Its TGI is > 100 µM.

**Q.** What about the GI50 (HL-60(TB) leukemia) of the same molecule?
**A.** Its GI50 is > 100 µM.

**Q.** What about the TGI (HL-60(TB) leukemia) of the same molecule?
**A.** Its TGI is > 100 µM.

**Q.** What about the GI50 (HOP-62 NSCLC) of the same molecule?
**A.** The GI50 was > 100 µM.

**Q.** What about the TGI (HOP-62 NSCLC) of the same molecule?
**A.** Its TGI is > 100 µM.

**Q.** And the GI50 (HOP-92 NSCLC)?
**A.** Its GI50 is > 100 µM.

**Q.** And the TGI (HOP-92 NSCLC)?
**A.** The TGI was > 100 µM.

**Q.** What about the GI50 (HS 578T breast) of the same molecule?
**A.** The GI50 was > 100 µM.

**Q.** What about the TGI (HS 578T breast) of the same molecule?
**A.** The TGI was > 100 µM.

**Q.** What about the GI50 (IGROV1 ovarian) of the same molecule?
**A.** Its GI50 is > 100 µM.

**Q.** What about the TGI (IGROV1 ovarian) of the same molecule?
**A.** Its TGI is > 100 µM.

**Q.** What about the GI50 (K-562 leukemia) of the same molecule?
**A.** Its GI50 is > 100 µM.

**Q.** What about the TGI (K-562 leukemia) of the same molecule?
**A.** Its TGI is > 100 µM.

**Q.** And the GI50 (KM12 colon)?
**A.** The GI50 was > 100 µM.

**Q.** And the TGI (KM12 colon)?
**A.** Its TGI is > 100 µM.

**Q.** What about the GI50 (LOX IMVI melanoma) of the same molecule?
**A.** Its GI50 is > 100 µM.

**Q.** And the TGI (LOX IMVI melanoma)?
**A.** The TGI was > 100 µM.

**Q.** What about the GI50 (M14 melanoma) of the same molecule?
**A.** The GI50 was > 100 µM.

**Q.** What about the TGI (M14 melanoma) of the same molecule?
**A.** Its TGI is > 100 µM.

**Q.** And the GI50 (MALME-3M melanoma)?
**A.** The GI50 was > 100 µM.

**Q.** And the TGI (MALME-3M melanoma)?
**A.** Its TGI is > 100 µM.

**Q.** And the GI50 (MDA-MB-231 breast)?
**A.** The GI50 was > 100 µM.

**Q.** And the TGI (MDA-MB-231 breast)?
**A.** Its TGI is > 100 µM.

**Q.** What about the GI50 (MOLT-4 leukemia) of the same molecule?
**A.** The GI50 was > 100 µM.

**Q.** And the TGI (MOLT-4 leukemia)?
**A.** Its TGI is > 100 µM.

**Q.** What about the GI50 (NCI-H226 lung) of the same molecule?
**A.** Its GI50 is > 100 µM.

**Q.** And the TGI (NCI-H226 lung)?
**A.** The TGI was > 100 µM.

**Q.** What about the GI50 (NCI-H23 lung) of the same molecule?
**A.** The GI50 was > 100 µM.

**Q.** What about the TGI (NCI-H23 lung) of the same molecule?
**A.** The TGI was > 100 µM.

**Q.** And the GI50 (NCI-H322M lung)?
**A.** The GI50 was > 100 µM.

**Q.** What about the TGI (NCI-H322M lung) of the same molecule?
**A.** The TGI was > 100 µM.

**Q.** What about the GI50 (NCI-H460 NSCLC) of the same molecule?
**A.** Its GI50 is > 100 µM.

**Q.** And the TGI (NCI-H460 NSCLC)?
**A.** Its TGI is > 100 µM.

**Q.** What about the GI50 (NCI/ADR-RES ovarian) of the same molecule?
**A.** The GI50 was > 100 µM.

**Q.** What about the TGI (NCI/ADR-RES ovarian) of the same molecule?
**A.** The TGI was > 100 µM.

**Q.** What about the GI50 (OVCAR-3 ovarian) of the same molecule?
**A.** Its GI50 is > 100 µM.

**Q.** What about the TGI (OVCAR-3 ovarian) of the same molecule?
**A.** Its TGI is > 100 µM.

**Q.** What about the GI50 (OVCAR-5 ovarian) of the same molecule?
**A.** Its GI50 is > 100 µM.

**Q.** And the TGI (OVCAR-5 ovarian)?
**A.** The TGI was > 100 µM.

**Q.** What about the GI50 (OVCAR-8 ovarian) of the same molecule?
**A.** The GI50 was > 100 µM.

**Q.** What about the TGI (OVCAR-8 ovarian) of the same molecule?
**A.** The TGI was > 100 µM.

**Q.** What about the GI50 (PC-3 prostate) of the same molecule?
**A.** Its GI50 is > 100 µM.

**Q.** What about the TGI (PC-3 prostate) of the same molecule?
**A.** The TGI was > 100 µM.

**Q.** And the GI50 (RPMI-8226 leukemia)?
**A.** Its GI50 is 46.7 µM.

**Q.** What about the TGI (RPMI-8226 leukemia) of the same molecule?
**A.** The TGI was > 90.7 µM.

**Q.** And the GI50 (RXF 393 renal)?
**A.** The GI50 was > 100 µM.

**Q.** What about the TGI (RXF 393 renal) of the same molecule?
**A.** Its TGI is > 100 µM.

**Q.** And the GI50 (SF-539 CNS)?
**A.** Its GI50 is > 100 µM.

**Q.** What about the TGI (SF-539 CNS) of the same molecule?
**A.** Its TGI is > 100 µM.

**Q.** And the GI50 (SK-MEL-2 melanoma)?
**A.** Its GI50 is > 100 µM.

**Q.** And the TGI (SK-MEL-2 melanoma)?
**A.** The TGI was > 100 µM.

**Q.** What about the GI50 (SK-OV-3 ovarian) of the same molecule?
**A.** The GI50 was > 100 µM.

**Q.** What about the TGI (SK-OV-3 ovarian) of the same molecule?
**A.** Its TGI is > 100 µM.

**Q.** What about the GI50 (SN12C renal) of the same molecule?
**A.** The GI50 was > 100 µM.

**Q.** What about the TGI (SN12C renal) of the same molecule?
**A.** The TGI was > 100 µM.

**Q.** And the GI50 (SNB-75 CNS)?
**A.** Its GI50 is > 94.8 µM.

**Q.** What about the TGI (SNB-75 CNS) of the same molecule?
**A.** Its TGI is > 100 µM.

**Q.** What about the GI50 (SR leukemia) of the same molecule?
**A.** The GI50 was > 100 µM.

**Q.** What about the TGI (SR leukemia) of the same molecule?
**A.** The TGI was > 100 µM.

**Q.** And the GI50 (SW-620 colon)?
**A.** The GI50 was > 100 µM.

**Q.** What about the TGI (SW-620 colon) of the same molecule?
**A.** The TGI was > 100 µM.

**Q.** And the GI50 (T-47D breast)?
**A.** Its GI50 is > 100 µM.

**Q.** What about the TGI (T-47D breast) of the same molecule?
**A.** The TGI was > 100 µM.

**Q.** And the GI50 (TK-10 renal)?
**A.** Its GI50 is > 100 µM.

**Q.** What about the TGI (TK-10 renal) of the same molecule?
**A.** The TGI was > 100 µM.

**Q.** What about the GI50 (U251 glioblastoma) of the same molecule?
**A.** Its GI50 is > 100 µM.

**Q.** What about the TGI (U251 glioblastoma) of the same molecule?
**A.** The TGI was > 100 µM.

**Q.** What about the GI50 (UACC-257 melanoma) of the same molecule?
**A.** Its GI50 is > 100 µM.

**Q.** And the TGI (UACC-257 melanoma)?
**A.** Its TGI is > 100 µM.

**Q.** And the GI50 (UACC-62 melanoma)?
**A.** The GI50 was > 100 µM.

**Q.** And the TGI (UACC-62 melanoma)?
**A.** The TGI was > 100 µM.

**Q.** And the GI50 (UO-31 renal)?
**A.** The GI50 was > 100 µM.

**Q.** And the TGI (UO-31 renal)?
**A.** Its TGI is > 100 µM.
